Experiments:
[1] = tested on: adult muscular dystrophy population; settings: heterogeneous adult muscular dystrophy group with normal baseline testosterone; after 3 months of treatment; cited from earlier work
[2] = tested on: patients with myotonic dystrophy; settings: 40 patients with myotonic dystrophy; cited from earlier work
FSHD patients = assay: Safety and tolerability monitoring in clinical study; type: in vivo, human; settings: intramuscular injection into the gluteal muscle, when properly given
Text: Safety outcome measures included (1) Changes from baseline in laboratory test results, vital signs, and EKG results, (2) Occurrence of serious adverse events, and (3) Occurrence of non-serious adverse events. Exploratory efficacy outcome measures included the following: • 1. Composite Quantitative Muscle Testing (QMT) score • 2. Composite Manual Muscle Testing (MMT) score • 3. FSHD Clinical Outcome Measure (FSHD-COM), total and individual test scores • 4. FSHD-Health Index (FSHD-HI), disease-specific patient-reported outcome measure • 5. Forced Vital Capacity (FVC) • 6. Epworth Sleepiness Scale • 7. Fatigue Severity Scale • 8. Dual Energy X-Ray Absorptiometry (DEXA) Lean Body Mass (total and regional) • 9. PROMIS-57 • 10. Individualized Neuromuscular Quality of Life Questionnaire (INQoL) • 11. Beck Depression Inventory (BDI) • 12. Six minute walk distance
For safety assessments and adverse event assessments, various clinical safety Laboratory tests were carried out. For treatment-specific assessments, the subjects were monitored for the following treatment-related events: • peripheral edema • carpal tunnel syndrome • gynecomastia • insulin resistance • arthralgia • increased erythropoiesis • reduced HDL cholesterol • elevated prostate specific antigen • elevated blood pressure […]

For `C[C@]12CC[C@H]3[C@@H](CCC4=CC(=O)CC[C@@]43C)[C@@H]1CC[C@@H]2O` [testosterone, 17-β-hydroxyandrost-4-en-3-one], the “Safety and body composition effects of testosterone in isolation” value [1] is listed as “safe and increase lean body mass, reduce body fat, and improve basal metabolic rate” and the “Safety and efficacy of testosterone in isolation” value [2] is listed as “safe, tolerable, and able to improve both creatinine excretion and lean body mass while not statistically improving overall strength”.

With `CCCCCCC(=O)O[C@H]1CC[C@H]2[C@@H]3CCC4=CC(=O)CC[C@]4(C)[C@H]3CC[C@]12C` [testosterone enanthate, Testosterone enanthate] the “Tolerability of intramuscular injections” value (FSHD patients) was “well tolerated”.

Source: patent US20250325560A1, “METHODS FOR IMPROVING MUSCLE MASS, STRENGTH, OR FUNCTION WITH A COMBINATION OF TESTOSTERONE AND GROWTH HORMONE” (University of Rochester, priority 2022, published 2025)
